± gives the standard deviation of the averaged measurements.
Assays:
UT-SCC-73 [1] = test: relative IC50 (midpoint of the fitted curve; maximal inhibition may be below 50%); higher = less potent; conditions: culture condition: plastic 2D (no matrix); treatment time: 3 days
Procedure, shortened: (§1)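 Viability of HPV-negative HNSCC cell lines was measured by CellTiter-Glo 2.0 luminescence. Cells were seeded at 500 cells/well in 384-well plates on plastic, on Matrigel- or Myogel-coated wells (500 µg/mL), or embedded in Matrigel or Myogel plus rat collagen I, then given compounds at five 10-fold concentrations for 3 days, with signals normalised to vehicle (0.1% DMSO) and cell-killing control wells. Fitting of percent-inhibition dose–response curves in the FIMM pipeline yielded IC50, maximal inhibition and drug sensitivity score.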

UT-SCC-8 [2] = test: as above; conditions: culture condition: embedded in Myogel + collagen I; treatment time: 3 days
Procedure, shortened: as §1

UT-SCC-24B [3] = test: as above; conditions: treatment time: 3 days
Procedure, shortened: as §1

UT-SCC-42B [4] = test: as above; conditions: treatment time: 3 days
Procedure, shortened: as §1

UT-SCC-106A [5] = test: as above; conditions: treatment time: 3 days
Procedure, shortened: as §1

UT-SCC-44 [6] = test: as above; conditions: treatment time: 3 days
Procedure, shortened: as §1

UT-SCC-73 [7] = test: maximal % inhibition of viability relative to DMSO; higher = stronger effect; conditions: treatment time: 3 days
Protocol: (§2)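 HNSCC cell lines (500 cells/well, 384-well) were cultured on plastic, on top of (2D) or embedded (3D) in Matrigel or human leiomyoma matrix Myogel (500 ug/mL; Myogel 3D mixed with rat collagen I). Cells were treated for 3 days with 5 ten-fold concentrations of each drug, and viability was read by CellTiter-Glo. Viability was normalised to DMSO and benzethonium chloride controls and fitted with the FIMM DSRT pipeline to give IC50 (nM), maximal % inhibition and DSS. Suffixes _1/_2/_3 are replicates. Only inhibition-mode (IC50) fits are kept.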

UT-SCC-40 = test: as above; conditions: treatment time: 3 days
Protocol: as §2

UT-SCC-8 [8] = test: as above; conditions: treatment time: 3 days
Protocol: as §2

UT-SCC-28 = test: as above; conditions: treatment time: 3 days
Protocol: as §2

UT-SCC-42A = test: as above; conditions: treatment time: 3 days
Protocol: as §2

UT-SCC-14 = test: as above; conditions: treatment time: 3 days
Protocol: as §2

UT-SCC-24B [9] = test: as above; conditions: treatment time: 3 days
Protocol: as §2

UT-SCC-42B [10] = test: as above; conditions: treatment time: 3 days
Protocol: as §2

UT-SCC-106A [11] = test: as above; conditions: treatment time: 3 days
Protocol: as §2

UT-SCC-81 = test: as above; conditions: treatment time: 3 days
Protocol: as §2

UT-SCC-44 [12] = test: as above; conditions: treatment time: 3 days
Protocol: as §2

UT-SCC-24A = test: drug sensitivity score (DSS); higher = more sensitive; conditions: treatment time: 3 days
Protocol: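 HNSCC cell lines (500 cells/well, 384-well) were cultured on plastic, on top of (2D) or embedded (3D) in Matrigel or human leiomyoma matrix Myogel (500 ug/mL; Myogel 3D mixed with rat collagen I). Cells were treated for 3 days with 5 ten-fold concentrations of each drug, and viability was read by CellTiter-Glo. Suffixes _1/_2/_3 on drug names are replicates.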

[13] = culture condition: embedded in Matrigel
[14] = culture condition: on top of Matrigel
[15] = culture condition: on top of Myogel
[16] = culture condition: plastic 2D (no matrix)
[17] = culture condition: embedded in Myogel + collagen I

relative IC50 (UT-SCC-73 [1]): > 9890 nM | relative IC50 (UT-SCC-8 [2]): > 9890 nM | relative IC50 (UT-SCC-24B [3]; [13]): 522 nM | relative IC50 (UT-SCC-24B [3]; [14]): 591 nM | relative IC50 (UT-SCC-24B [3]; [15]): 2490 nM | relative IC50 (UT-SCC-24B [3]; [16]): 227 nM | relative IC50 (UT-SCC-42B [4]; [13]): 2110 nM | relative IC50 (UT-SCC-42B [4]; [15]): > 9890 nM | relative IC50 (UT-SCC-42B [4]; [16]): > 9890 nM | relative IC50 (UT-SCC-106A [5]; [13]): 2070 nM | relative IC50 (UT-SCC-106A [5]; [15]): > 9890 nM | relative IC50 (UT-SCC-44 [6]; [13]): > 9890 nM | relative IC50 (UT-SCC-44 [6]; [14]): > 9890 nM
SMILES: C#Cc1cccc(Nc2ncnc3cc(OCCOC)c(OCCOC)cc23)c1 [Erlotinib]
maximal % inhibition of viability (UT-SCC-73 [7]; [13]): 11.2 ± 8.1% | maximal % inhibition of viability (UT-SCC-73 [7]; [17]): 13.6 ± 19% | maximal % inhibition of viability (UT-SCC-73 [7]; [14]): 13.9 ± 3.5% | maximal % inhibition of viability (UT-SCC-73 [7]; [15]): 9.4 ± 5.2% | maximal % inhibition of viability (UT-SCC-73 [7]; [16]): 5.97 ± 2.2% | maximal % inhibition of viability (UT-SCC-40; [13]): 18.6 ± 8.3% | maximal % inhibition of viability (UT-SCC-40; [17]): 11.2 ± 9.4% | maximal % inhibition of viability (UT-SCC-40; [14]): 7.93 ± 2.4% | maximal % inhibition of viability (UT-SCC-40; [15]): 7.8 ± 4.5% | maximal % inhibition of viability (UT-SCC-40; [16]): 9.97 ± 3.5% | maximal % inhibition of viability (UT-SCC-8 [8]; [13]): 67.3 ± 28% | maximal % inhibition of viability (UT-SCC-8 [8]; [17]): 14.7 ± 22% | maximal % inhibition of viability (UT-SCC-8 [8]; [14]): 55.5 ± 29% | maximal % inhibition of viability (UT-SCC-8 [8]; [15]): 21.4 ± 0.72% | maximal % inhibition of viability (UT-SCC-8 [8]; [16]): 40.5 ± 14% | maximal % inhibition of viability (UT-SCC-28; [13]): 11.3 ± 9.9% | maximal % inhibition of viability (UT-SCC-28; [17]): 14 ± 5.9% | maximal % inhibition of viability (UT-SCC-28; [14]): 12.2 ± 3.6% | maximal % inhibition of viability (UT-SCC-28; [16]): 8.37 ± 7.3% | maximal % inhibition of viability (UT-SCC-42A; [13]): 23.9 ± 23% | maximal % inhibition of viability (UT-SCC-42A; [17]): 9.7 ± 4.9% | maximal % inhibition of viability (UT-SCC-42A; [14]): 32.1 ± 18% | maximal % inhibition of viability (UT-SCC-42A; [15]): 12.6 ± 2.3% | maximal % inhibition of viability (UT-SCC-42A; [16]): 20.6 ± 17% | maximal % inhibition of viability (UT-SCC-14; [13]): 29.5 ± 7.8% | maximal % inhibition of viability (UT-SCC-14; [17]): 9.87 ± 4.7% | maximal % inhibition of viability (UT-SCC-14; [14]): 9.6 ± 10% | maximal % inhibition of viability (UT-SCC-14; [15]): 11.6 ± 10% | maximal % inhibition of viability (UT-SCC-14; [16]): 8.77 ± 15% | maximal % inhibition of viability (UT-SCC-24B [9]; [13]): 76.5 ± 0.95% | maximal % inhibition of viability (UT-SCC-24B [9]; [17]): 67.5 ± 6.2% | maximal % inhibition of viability (UT-SCC-24B [9]; [14]): 74.4 ± 3% | maximal % inhibition of viability (UT-SCC-24B [9]; [15]): 59.3 ± 5% | maximal % inhibition of viability (UT-SCC-24B [9]; [16]): 80.9 ± 1.6% | maximal % inhibition of viability (UT-SCC-42B [10]; [13]): 36.7 ± 12% | maximal % inhibition of viability (UT-SCC-42B [10]; [14]): 13.7 ± 13% | maximal % inhibition of viability (UT-SCC-42B [10]; [15]): 4.07 ± 4.7% | maximal % inhibition of viability (UT-SCC-42B [10]; [16]): 4.5 ± 0.98% | maximal % inhibition of viability (UT-SCC-106A [11]; [13]): 25.1 ± 5.3% | maximal % inhibition of viability (UT-SCC-106A [11]; [17]): 10.4 ± 0.53% | maximal % inhibition of viability (UT-SCC-106A [11]; [14]): 23.6 ± 11% | maximal % inhibition of viability (UT-SCC-106A [11]; [15]): 2.57 ± 2.4% | maximal % inhibition of viability (UT-SCC-106A [11]; [16]): 19.6 ± 7.3% | maximal % inhibition of viability (UT-SCC-81; [13]): 77.1 ± 4.2% | maximal % inhibition of viability (UT-SCC-81; [17]): 6.5 ± 5.1% | maximal % inhibition of viability (UT-SCC-81; [14]): 62 ± 6.1% | maximal % inhibition of viability (UT-SCC-81; [15]): 15.7 ± 4.9% | maximal % inhibition of viability (UT-SCC-81; [16]): 12.4 ± 3.9% | maximal % inhibition of viability (UT-SCC-44 [12]; [13]): 6.07 ± 5.3% | maximal % inhibition of viability (UT-SCC-44 [12]; [17]): 10 ± 9.8% | maximal % inhibition of viability (UT-SCC-44 [12]; [14]): 14.1 ± 8.5% | maximal % inhibition of viability (UT-SCC-44 [12]; [15]): 20.4 ± 11% | maximal % inhibition of viability (UT-SCC-44 [12]; [16]): 15.9 ± 13% | drug sensitivity score (UT-SCC-24A; [13]): 8.87 ± 3.6 DSS | drug sensitivity score (UT-SCC-24A; [17]): 1.63 ± 1 DSS | drug sensitivity score (UT-SCC-24A; [14]): 5.7 ± 1.7 DSS | drug sensitivity score (UT-SCC-24A; [15]): 0 DSS | drug sensitivity score (UT-SCC-24A; [16]): 3.03 ± 0.93 DSS
